# Data taken from US6593342B1, “Pharmaceutical compositions comprising 2-quinolones” (Laboratoire L. Lafon, priority 1998, dated 2003).
# Tests used:
# T24 = assay: MTT test, T24; type: cell-based; details: Homo sapiens, T-24, 10^−5 M, 72 hours, control = 100%, mean ± SEM, read-out: average optical density (MTT), percentage relative to control
# Experimental: (§1) The influence of the compounds of formulae (I) and (Ia) on non-clonogenic cells was evaluated with the aid of the MTT calorimetric test.
# (§2) The principle of the MTT test is based on the mitochondrial reduction, by the metabolically active live cells, of the yellow-colored product MTT (3-(4,5-dimethylthiazol-2-yl)-2,5-diphenyltetrazolium bromide) to a blue-colored product, formazan. The amount of formazan thus obtained is directly proportional to the amount of live cells present in the culture well(s). This amount of formazan is measured by spectrophotometry.
# (§3) The cell lines are maintained as a monolayer culture at 37° C. in stoppered culture dishes containing MEM 25 MM HEPES (Minimum Essential Medium) base medium. This medium is suited to the growth of a range of various mammalian diploid or primary cells. This medium is then supplemented with:
# (§4) an amount of 5% of FCS (Foetal Calf Serum) decomplemented at 56° C. for 1 hour,
# (§5) 0.6 mg/ml of L-glutamine,
# (§6) 200 μg/ml of streptomycin,
# (§7) The 12 human cancer cell lines which were used were obtained from the American Type Culture Collection (ATCC, Rockville, Md., USA). These 12 cell lines are:
# (§8) J82 (code ATCC: HTB-1) and T24 (code ATCC: HTB-4) which are two bladder cancers,
# (§9) Experimentally: 100 μl of a cell suspension containing 20 000 to 50 000 (depending on the cell type used) cells/ml of culture medium are inoculated in 96-well flat-bottomed multi-well plates and are incubated at 37° C., under an atmosphere comprising 5% CO2 and 70% humidity. After incubation for 24 hours, the culture medium is replaced with 100 μl of fresh medium containing either the various test compounds at concentrations ranging from 10^−5 to 10^−10 M or the solvent used to dissolve the test products (control condition). After incubation for 72 hours under the above conditions, the culture medium is replaced with 100 μl of a yellowish solution of MTT dissolved at a rate of 1 mg/ml in RPMI 1640. The microplates are reincubated for 3 hours at 37° C. and are then centrifuged for 10 minutes at 400×g. The yellowish solution of MTT is removed and the blue formazan crystals formed in the cell are dissolved in 100 μl of DMSO. The microplates are then shaken for 5 minutes. The intensity of the resulting blue coloration, and thus of the conversion of the yellow product MTT into blue formazan by the cells that are still alive at the end of the experiment, is quantified by spectrophotometry using a Dynatech Immunoassay System machine at wavelengths of 570 nm and 630 nm corresponding, respectively, to the maximum absorption wavelengths of formazan and to the background noise. Software incorporated in the spectrophotometer calculates the average optical density values and the standard deviation (SD) and standard error of mean (SEM) values.
# (§10) By way of example, the results of the average optical density, expressed as a percentage relative to the average optical density measured under the control condition (set equal to 100%), obtained at a concentration of 10^−5 M on the 12 abovementioned tumor cell lines are given in Table II.
# A-427 = assay: MTT test, A-427; type: cell-based; details: Homo sapiens, 10^−5 M, 72 hours, control = 100%, mean ± SEM, read-out: average optical density (MTT), percentage relative to control
# Experimental: as §1, §2, §3, §4, §5, §6, §7
# (§11) A549 (code ATCC: CCL-185) and A-427 (code ATCC: HTB-53) which are two non-small-cell lung cancers,
# as §9, §10
# LoVo = assay: MTT test, LoVo; type: cell-based; details: Homo sapiens, 10^−5 M, 72 hours, control = 100%, mean ± SEM, read-out: average optical density (MTT), percentage relative to control
# Experimental: as §1, §2, §3, §4, §5, §6, §7
# (§12) HTC-15 (code ATCC: CCL-225) and LoVo (code ATCC: CCL-229) which are two colorectal cancers,
# as §9, §10
# T-47D = assay: MTT test, T-47D; type: cell-based; details: Homo sapiens, T47D, 10^−5 M, 72 hours, control = 100%, mean ± SEM, read-out: average optical density (MTT), percentage relative to control
# Experimental: as §1, §2, §3, §4, §5, §6, §7
# (§13) T-47D (code ATCC: HTB-133) and MCF7 (code ATCC: HTB-22) which are two breast cancers,
# as §9, §10
# MCF7 = assay: MTT test, MCF7; type: cell-based; details: Homo sapiens, 10^−5 M, 72 hours, control = 100%, mean ± SEM, read-out: average optical density (MTT), percentage relative to control
# Experimental: as §1, §2, §3, §4, §5, §6, §7, §13, §9, §10
# [1] = Determination of the maximum tolerated dose (MTD); details: mouse, in vivo, ip; B6D2F1/Jico mice; single intraperitoneal administration, 2.5 to 160 mg/kg; survival over 14 days
# Experimental: 3.—Determination of the Maximum Tolerated Dose (MTD):
# The evaluation of the maximum tolerated dose was carried out on 4- to 6-week-old B6D2F1/Jico mice. The compounds were administered intraperitoneally at increasing doses graduating from 2.5 to 160 mg/kg. The value of the MTD (expressed in mg/kg) is determined from the observation of the survival rate of the animals over a 14-day period after a single administration of the product under consideration. The weight change of the animals is also monitored during this period. When the value of the MTD is greater than 160 mg/kg, the MTD value is likened to 160 mg/kg by default.
# The results of the estimation of the maximum tolerated dose (MTD) are collated in the following table: […]
# A549 = assay: MTT test, A549; type: cell-based; details: Homo sapiens, 10^−5 M, 72 hours, control = 100%, mean ± SEM, read-out: average optical density (MTT), percentage relative to control
# Experimental: as §1, §2, §3, §4, §5, §6, §7, §11, §9, §10
# HCT-15 = assay: MTT test, HCT-15; type: cell-based; details: Homo sapiens, 10^−5 M, 72 hours, control = 100%, mean ± SEM, read-out: average optical density (MTT), percentage relative to control
# Experimental: as §1, §2, §3, §4, §5, §6, §7, §12, §9, §10
# PC-3 = assay: MTT test, PC-3; type: cell-based; details: Homo sapiens, 10^−5 M, 72 hours, control = 100%, mean ± SEM, read-out: average optical density (MTT), percentage relative to control
# Experimental: as §1, §2, §3, §4, §5, §6, §7
# PC-3 (code ATCC: CRL-1435) which is a prostate cancer.
# as §9, §10
# J82 = assay: MTT test, J82; type: cell-based; details: Homo sapiens, 10^−5 M, 72 hours, control = 100%, mean ± SEM, read-out: average optical density (MTT), percentage relative to control
# Experimental: as §1, §2, §3, §4, §5, §6, §7, §8, §9, §10
# U-87MG = assay: MTT test, U-87MG; type: cell-based; details: Homo sapiens, 10^−5 M, 72 hours, control = 100%, mean ± SEM, read-out: average optical density (MTT), percentage relative to control
# Experimental: as §1, §2, §3, §4, §5, §6, §7
# (§14) U-373MG (code ATCC: HTB-17) and U-87MG (code ATCC: HTB-14) which are two glioblastomas,
# as §9, §10
# SW1088 = assay: MTT test, SW1088; type: cell-based; details: Homo sapiens, 10^−5 M, 72 hours, control = 100%, mean ± SEM, read-out: average optical density (MTT), percentage relative to control
# Experimental: as §1, §2, §3, §4, §5, §6, §7
# SW1088 (code ATCC: HTB-12) which is an astrocytoma,
# as §9, §10
# U-373MG = assay: MTT test, U-373MG; type: cell-based; details: Homo sapiens, U373 MG, 10^−5 M, 72 hours, control = 100%, mean ± SEM, read-out: average optical density (MTT), percentage relative to control
# Experimental: as §1, §2, §3, §4, §5, §6, §7, §14, §9, §10
Structure (SMILES),viability at 10 µM (T24) [%],viability at 10 µM (A-427) [%],viability at 10 µM (LoVo) [%],viability at 10 µM (T-47D) [%],viability at 10 µM (MCF7) [%],MTD at 14 day [1] [mg/kg],viability at 10 µM (A549) [%],viability at 10 µM (HCT-15) [%],viability at 10 µM (PC-3) [%],viability at 10 µM (J82) [%],viability at 10 µM (U-87MG) [%],viability at 10 µM (SW1088) [%],viability at 10 µM (U-373MG) [%]
"COc1ccc(-c2cc3c(OC)cc(OC)c4c3n(c2=O)CCC4=O)cc1 [CRL8285, 8,10-Dimethoxy-6-(4-methoxyphenyl)-2,3-dihydro-1H,5H-pyrido[3,2,1-ij]quinoline-1,5-dione]",72.7 ± 1.8,78.4 ± 1.6,103 ± 3.1,89.3 ± 1.7,83.7 ± 2.3,> 160,92.5 ± 3.5,90.6 ± 1.6,93.4 ± 1.8,68.7 ± 2.9,85.1 ± 2,89.8 ± 2.7,96.9 ± 1.6
"Oc1ccc(-c2cc3c(O)cc(O)cc3nc2O)cc1 [CRL8311, 5,7-Dihydroxy-3-(4-hydroxyphenyl)-1,2-dihydro-2-quinolinone]",90 ± 1.9,89.7 ± 2,77.9 ± 1.7,108 ± 6.6,98.8 ± 2.3,> 160,106 ± 2.4,101 ± 3.6,122 ± 3.5,127 ± 1.9,91.8 ± 1.3,80.7 ± 1.7,113 ± 2.5
CCOC(=O)Cn1c(=O)c(-c2ccc(OC)cc2)cc2c(OC)cc(OC)cc21 [CRL8314],61.9 ± 2.5,104 ± 3.1,82.9 ± 2.5,114 ± 2.3,72.2 ± 2,> 160,85.2 ± 1.4,116 ± 4.4,88.6 ± 1.4,33.2 ± 1.2,74.5 ± 3.4,85.4 ± 2.5,89.2 ± 2
"COc1ccc(-c2cc3c(OC)cc(OC)cc3n(CC(=O)O)c2=O)cc1 [CRL8317, 2-[5,7-Dimethoxy-3-(4-methoxyphenyl)-2-oxo-1,2-dihydro-1-quinolinyl]acetic Acid]",91.4 ± 4.3,91.3 ± 2,86.8 ± 2.8,95 ± 2.5,96 ± 2.1,> 160,94.7 ± 2.2,104 ± 2.6,97.9 ± 1.1,83.6 ± 1.8,91 ± 4.1,103 ± 2.3,91.2 ± 1.9
COC(=O)CCn1c(=O)c(-c2ccc(OC)cc2)cc2c(OC)cc(OC)cc21 [CRL8318],81.8 ± 1.4,74 ± 3,75.2 ± 2.3,100 ± 3.9,105 ± 2.4,> 160,86.6 ± 2.5,113 ± 1.7,79.2 ± 2.8,72.8 ± 1.2,78.1 ± 2.4,75.2 ± 3,89.9 ± 1.3
"COc1ccc(-c2cc3c(OC)cc(OC)cc3n(CCC(=O)O)c2=O)cc1 [CRL8319, 3-[5,7-Dimethoxy-3-(4-methoxyphenyl)-2-oxo-1,2-dihydro-1-quinolinyl]propanoic Acid]",89.6 ± 2.1,79.1 ± 2.5,79.7 ± 2.7,104 ± 2.5,102 ± 2,> 160,97.3 ± 1.2,96.7 ± 1.6,90.7 ± 3.6,80.9 ± 1,115 ± 2.9,89.8 ± 2.7,102 ± 1.5
"Cn1c(=O)c(-c2ccc(O)cc2)cc2c(O)cc(O)cc21 [CRL8321, 5,7-Dihydroxy-3-(4-hydroxyphenyl)-1-methyl-1,2-dihydro-2-quinolinone]",103 ± 1.7,107 ± 1.4,108 ± 1.1,91.5 ± 1.2,96.6 ± 0.9,> 160,99.4 ± 1.3,118 ± 1.6,102 ± 3.1,88.6 ± 0.9,96.5 ± 1.2,97.2 ± 1.8,97.1 ± 2.4
"COc1cc(OC)c2cc(-c3ccccc3)c(O)nc2c1 [CRL8330, 5,7-Dimethoxy-3-phenyl-1,2-dihydro-2-quinolinone]",57.4 ± 2.3,59.8 ± 1,59.9 ± 4.2,77.6 ± 3,87.2 ± 3,> 160,76.3 ± 2.4,94.7 ± 2.1,48.5 ± 2.1,70.5 ± 2.4,86.6 ± 0.7,73.3 ± 1.8,75.5 ± 3.7
